Experimental data published in ChEMBL document CHEMBL1201862, “PubChem BioAssay data set” (2004).
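Each compound was tested at five concentrations against cells in 96-well plates for 48 hours. At the GI50, growth is halved.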 Activity calls are given as the source filed them. No stated cut-off is given here; in the data, active = GI50 up to about 1.1 µM and inactive = higher.

Key:
Assay in all cases: inhibition of tumour cell growth, NCI panel, 48 h
[1] = system: U-251
[2] = system: DU-145
[3] = system: HOP-92
[4] = system: NCI-H522
[5] = system: SNB-19
[6] = system: UO-31
[7] = system: HCC 2998
[8] = system: MDA-MB-435
[9] = system: PC-3
[10] = system: K562
[11] = system: RPMI-8226
[12] = system: COLO 205
[13] = system: OVCAR-4
[14] = system: BT-549
[15] = system: OVCAR-5
[16] = system: NCI/ADR-RES
[17] = system: SF-268
[18] = system: NCI-H226
[19] = system: SK-MEL-28
[20] = system: SN12C
[21] = system: MDA-N
[22] = system: SF-295
[23] = system: TK-10
[24] = system: UACC-62
[25] = system: HL-60
[26] = system: HCT-15
[27] = system: HOP-62
[28] = system: SK-MEL-2
[29] = system: Malme-3M
[30] = system: SR
[31] = system: SK-OV-3
[32] = system: CCRF-CEM
[33] = system: MOLT-4
[34] = system: Hs-578T
[35] = system: SK-MEL-5
[36] = system: UACC-257
[37] = system: SNB-75
[38] = system: NCI-H23
[39] = system: MCF7
[40] = system: LOX IMVI
[41] = system: SF-539
[42] = system: KM12
[43] = system: HT-29
[44] = system: IGROV-1
[45] = system: A549
[46] = system: EKVX
[47] = system: OVCAR-8
[48] = system: MDA-MB-231
[49] = system: HCT-116
[50] = system: NCI-H460
[51] = system: OVCAR-3
[52] = system: RXF 393
[53] = system: CAKI-1
[54] = system: 786-0
[55] = system: SW-620
[56] = system: T47D
[57] = system: ACHN
[58] = system: M14
[59] = system: A498
[60] = system: HOP-18
[61] = system: M19-MEL
[62] = system: LXFL 529
[63] = system: SNB-78
[64] = system: DMS-273
[65] = system: KM-20L2

With `O=C(C1OC1c1ccc(O)cc1)C12CC3CC(CC(C3)C1)C2` (stereo unspecified) the GI50 [1] was > 76 µM (inactive), the GI50 [2] was > 100 µM (inactive) and the GI50 [3] was 32.3 µM (inactive). For the same compound, the GI50 [4] was 7.29 µM (inactive), the GI50 [5] was > 100 µM (inactive) and the GI50 [6] was 32.1 µM (inactive). For the same compound, the GI50 [7] was > 100 µM (inactive), the GI50 [8] was > 40.7 µM (inactive) and the GI50 [9] was 85.5 µM (inactive). The GI50 [10] was 23.7 µM (inactive), the GI50 [11] was 27 µM (inactive) and the GI50 [12] was 29.5 µM (inactive). For the same compound, the GI50 [13] was 51.3 µM (inactive), the GI50 [14] was 31.2 µM (inactive) and the GI50 [15] was > 100 µM (inactive). The GI50 [16] was 52.1 µM (inactive), the GI50 [17] was > 87.1 µM (inactive) and the GI50 [18] was > 100 µM (inactive). The GI50 [19] was > 100 µM (inactive), the GI50 [20] was 47.1 µM (inactive) and the GI50 [21] was > 57.1 µM (inactive). For the same compound, the GI50 [22] was > 88.9 µM (inactive), the GI50 [23] was 58.3 µM (inactive) and the GI50 [24] was 40.1 µM (inactive). The GI50 [25] was 10.9 µM (inactive), the GI50 [26] was 53.2 µM and the GI50 [27] was > 100 µM (inactive). For the same compound, the GI50 [28] was > 100 µM (inactive), the GI50 [29] was 45.1 µM (inactive) and the GI50 [30] was 30.1 µM (inactive). For the same compound, the GI50 [31] was > 100 µM (inactive), the GI50 [32] was 5.92 µM (inactive) and the GI50 [33] was 17.8 µM (inactive). The GI50 [34] was > 100 µM (inactive), the GI50 [35] was 61.7 µM (inactive) and the GI50 [36] was 57 µM (inactive). The GI50 [37] was > 100 µM (inactive), the GI50 [38] was 97.9 µM (inactive) and the GI50 [39] was > 55.3 µM (inactive). For the same compound, the GI50 [40] was > 40.2 µM (inactive), the GI50 [41] was 45 µM (inactive) and the GI50 [42] was 98.9 µM (inactive). For the same compound, the GI50 [43] was > 100 µM (inactive), the GI50 [44] was > 86.1 µM (inactive) and the GI50 [45] was 95.3 µM (inactive). For the same compound, the GI50 [46] was > 58.1 µM (inactive), the GI50 [47] was 50 µM (inactive) and the GI50 [48] was > 100 µM (inactive). For the same compound, the GI50 [49] was 41.5 µM (inactive), the GI50 [50] was > 80.9 µM (inactive) and the GI50 [51] was 45.1 µM (inactive). For the same compound, the GI50 [52] was > 78.3 µM (inactive), the GI50 [53] was 40.8 µM (inactive) and the GI50 [54] was 31.6 µM (inactive). The GI50 [55] was 27.7 µM (inactive), the GI50 [56] was 22.9 µM (inactive) and the GI50 [57] was 42 µM (inactive). The GI50 [58] was > 64.3 µM (inactive) and the GI50 [59] was > 69.8 µM (inactive).
In the case of `COc1ccc(C2C(=O)C(Cl)N2Nc2nc(C)cc(O)n2)cc1OC` (stereo unspecified), the GI50 [1] is reported as 26.2 µM (inactive), the GI50 [3] is reported as 25.5 µM (inactive) and the GI50 [5] is reported as 40.5 µM (inactive). The GI50 [6] was 29.9 µM (inactive), the GI50 [7] was 42.6 µM (inactive) and the GI50 [10] was 22 µM (inactive). For the same compound, the GI50 [60] was 6.41 µM (inactive), the GI50 [11] was 19.1 µM (inactive) and the GI50 [12] was 51.2 µM (inactive). For the same compound, the GI50 [13] was 30.8 µM (inactive), the GI50 [15] was > 100 µM (inactive) and the GI50 [17] was 17.9 µM (inactive). The GI50 [19] was 43.3 µM (inactive), the GI50 [20] was 21.7 µM (inactive) and the GI50 [61] was 42.3 µM (inactive). For the same compound, the GI50 [62] was 41.3 µM (inactive), the GI50 [23] was 43.6 µM (inactive) and the GI50 [63] was 21.1 µM (inactive). The GI50 [24] was 28.4 µM (inactive), the GI50 [25] was 13.9 µM (inactive) and the GI50 [26] was 20.2 µM. For the same compound, the GI50 [64] was 22.1 µM (inactive), the GI50 [27] was 23.6 µM (inactive) and the GI50 [28] was 22.6 µM (inactive). For the same compound, the GI50 [30] was 18.8 µM (inactive), the GI50 [65] was 37 µM (inactive) and the GI50 [32] was 5.58 µM (inactive). For the same compound, the GI50 [33] was 18.7 µM (inactive), the GI50 [35] was 29.3 µM (inactive) and the GI50 [36] was 40.6 µM (inactive). For the same compound, the GI50 [37] was 8.13 µM (inactive), the GI50 [38] was 25.3 µM (inactive) and the GI50 [40] was 18.1 µM (inactive). For the same compound, the GI50 [41] was 24 µM (inactive), the GI50 [42] was 39.6 µM (inactive) and the GI50 [43] was 46.1 µM (inactive). For the same compound, the GI50 [44] was 10.9 µM (inactive), the GI50 [45] was 59.7 µM (inactive) and the GI50 [46] was 56.8 µM (inactive). For the same compound, the GI50 [47] was 26.3 µM (inactive), the GI50 [49] was 36.3 µM (inactive) and the GI50 [50] was 26.8 µM (inactive). For the same compound, the GI50 [51] was 10.2 µM (inactive), the GI50 [52] was 25.2 µM (inactive) and the GI50 [55] was 45.3 µM (inactive). The GI50 [57] was 19.4 µM (inactive) and the GI50 [58] was 25.8 µM (inactive).
